Results: ChEMBL document CHEMBL1138960 (Bioorg Med Chem Lett, 2006)
≈ marks a conversion by molar mass, not a printed value. Calls of active or inactive are those of the source. No cut-off for these calls is given here.

Legend:
A-375 [1] = assay: Antiproliferative activity against human A375 cells; format: functional, cell-based
[2] = Solubility at pH 2.0; format: physicochemical; details: buffer
[3] = target: Cyclin-dependent kinase 2 (Homo sapiens, UniProt P24941); assay: Inhibition of CDK2
[4] = target: Cyclin-dependent kinase 1 (Homo sapiens, UniProt P06493); assay: Inhibition of CDK1
[5] = Tmax in rat; format: ADME, organism-based; details: in vivo
[6] = Half life in rat; format: ADME, organism-based; details: in vivo
[7] = AUC in rat at 3 mg/kg, iv; format: ADME, organism-based; design: dose 3 mg/kg, route intravenous; details: plasma
HeLa = assay: Antiproliferative activity against human HeLa cells; format: functional, cell-based
Rattus norvegicus [8] = assay: Conversion of prodrug to parent in rat at 3 mg/kg, iv [100*AUC (JNJ-7706621) / AUC (prodrug)]; format: ADME, organism-based; design: dose 3 mg/kg, route intravenous; details: in vivo
[9] = Solubility at pH 7.4; format: physicochemical; details: buffer
HCT-116 = assay: Antiproliferative activity against human HCT116 cells; format: functional, cell-based
A-375 [10] = assay: Antitumor activity in human melanoma A375 cell line using tumor xenograft model after 28 days at 100 mg/kg, ip; format: functional, organism-based; design: dose 100 mg/kg
Rattus norvegicus [11] = assay: AUC in rat after administration as its prodrug N-(4-(5-amino-1-(2,6-difluorobenzoyl)-1H-1,2,4-triazol-3-ylamino)phenylsulfonyl)-3-morpholinopropanamide at 3 mg/kg, iv; format: ADME, organism-based, Plasma; design: dose 3 mg/kg, route intravenous; details: in vivo
Rattus norvegicus [12] = assay: AUC in rat after administration as its prodrug 4-(4-(5-amino-1-(2,6-difluorobenzoyl)-1H-1,2,4-triazol-3-ylamino)phenylsulfonamido)-4-oxobutanoic acid at 3 mg/kg, iv; format: ADME, organism-based, Plasma; design: dose 3 mg/kg, route intravenous; details: in vivo
Rattus norvegicus [13] = assay: AUC in rat after administration as its prodrug ethyl 4-(4-(5-amino-1-(2,6-difluorobenzoyl)-1H-1,2,4-triazol-3-ylamino)phenylsulfonamido)-4-oxobutanoate at 3 mg/kg, iv; format: ADME, organism-based, Plasma; design: dose 3 mg/kg, route intravenous; details: in vivo
[14] = Oral bioavailability in nude mice; format: ADME, organism-based; details: mouse, in vivo
Rattus norvegicus [15] = assay: AUC in rat after administration as its prodrug N-(4-(5-amino-1-(2,6-difluorobenzoyl)-1H-1,2,4-triazol-3-ylamino)phenylsulfonyl)-2-(2-methoxyethoxy)acetamide at 3 mg/kg, iv; format: ADME, organism-based, Plasma; design: dose 3 mg/kg, route intravenous; details: in vivo
A-375 [16] = assay: Antitumor activity in human melanoma A375 cell line using tumor xenograft model at 100 mg/kg, ip; format: functional; details: A-375, ip, route intraperitoneal, read-out: TGI
[17] = Oral bioavailability in rat; format: ADME, organism-based; details: in vivo
Rattus norvegicus [18] = assay: AUC in rat after administration as its prodrug (R)-2-amino-N-(4-(5-amino-1-(2,6-difluorobenzoyl)-1H-1,2,4-triazol-3-ylamino)phenylsulfonyl)-3-hydroxypropanamide at 3 mg/kg, iv; format: ADME, organism-based, Plasma; design: dose 3 mg/kg, route intravenous; details: in vivo
Rattus norvegicus [19] = assay: AUC in rat after administration as its prodrug N-(4-(5-amino-1-(2,6-difluorobenzoyl)-1H-1,2,4-triazol-3-ylamino)phenylsulfonyl)-3-(4-methylpiperazin-1-yl)propanamide at 3 mg/kg, iv; format: ADME, organism-based, Plasma; design: dose 3 mg/kg, route intravenous; details: in vivo
Rattus norvegicus [20] = assay: AUC in rat after administration as its prodrug 2-amino-N-(4-(5-amino-1-(2,6-difluorobenzoyl)-1H-1,2,4-triazol-3-ylamino)phenylsulfonyl)acetamide at 3 mg/kg, iv; format: ADME, organism-based, Plasma; design: dose 3 mg/kg, route intravenous; details: in vivo

Cyclin-dependent kinase 1, sequence (P06493 whole entry): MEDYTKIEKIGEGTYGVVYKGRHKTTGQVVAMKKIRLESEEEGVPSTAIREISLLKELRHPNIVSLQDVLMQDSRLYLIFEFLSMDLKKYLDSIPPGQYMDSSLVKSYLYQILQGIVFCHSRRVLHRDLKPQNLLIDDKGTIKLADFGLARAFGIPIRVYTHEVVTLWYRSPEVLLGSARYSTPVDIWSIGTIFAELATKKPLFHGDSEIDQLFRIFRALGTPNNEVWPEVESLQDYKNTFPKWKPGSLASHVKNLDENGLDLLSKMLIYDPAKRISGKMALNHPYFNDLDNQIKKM

SMILES	IC50 (A-375 [1]) [µM]	solubility [2] [µg/mL]	IC50 [3] [nM]	Tmax [5] [min]	half-life [6] [min]	AUC [7] [µM·h]	IC50 (HeLa) [µM]	Activity (Rattus norvegicus [8]) [%]	solubility [9] [µg/mL]	IC50 (HCT-116) [µM]	also measured
Nc1nc(Nc2ccc(S(=O)(=O)NC(=O)[C@H](N)CO)cc2)nn1C(=O)c1c(F)cccc1F	> 10	440 (≈ 914 µM)	140	4.8	9.6	8.15	4.02	8	> 1000	71.2	IC50 [4]: 1410 nM
NCC(=O)NS(=O)(=O)c1ccc(Nc2nc(N)n(C(=O)c3c(F)cccc3F)n2)cc1	9.45	130 (≈ 288 µM)	–	4.8	9.6	11.8	14.9	31	200 (≈ 443 µM)	36.9	–
CN1CCN(CCC(=O)NS(=O)(=O)c2ccc(Nc3nc(N)n(C(=O)c4c(F)cccc4F)n3)cc2)CC1	> 100	> 1000	266	4.8	9.6	23.2	> 100	4	820 (≈ 1490 µM)	> 10	–
Nc1nc(Nc2ccc(S(=O)(=O)NC(=O)CCC(=O)O)cc2)nn1C(=O)c1c(F)cccc1F	20.2	0.7 (≈ 1.42 µM)	71	4.8	9.6	47	31.9	38	> 1000	> 100	Activity (A-375 [10]): inactive
Nc1nc(Nc2ccc(S(N)(=O)=O)cc2)nn1C(=O)c1c(F)cccc1F [JNJ-7706621]	0.447	6 (≈ 15.2 µM)	–	4.8	9.6	–	0.284	–	–	0.254	AUC (Rattus norvegicus [11]): 1.4 µM·h; AUC (Rattus norvegicus [12]): 18 µM·h; AUC (Rattus norvegicus [13]): 29.1 µM·h; bioavailability [14]: 2%; AUC (Rattus norvegicus [15]): 7.62 µM·h; inhibition in vivo at 100 mg/kg (A-375 [16]): 95%; bioavailability [17]: 8%; AUC (Rattus norvegicus [18]): 0.63 µM·h; AUC (Rattus norvegicus [19]): 0.93 µM·h; AUC (Rattus norvegicus [20]): 3.67 µM·h
CCOC(=O)CCC(=O)NS(=O)(=O)c1ccc(Nc2nc(N)n(C(=O)c3c(F)cccc3F)n2)cc1	> 10	0.2 (≈ 0.383 µM)	62	4.8	9.6	72.2	60.2	40	210 (≈ 402 µM)	40.1	–
Nc1nc(Nc2ccc(S(=O)(=O)NC(=O)CCN3CCOCC3)cc2)nn1C(=O)c1c(F)cccc1F	> 100	14 (≈ 26.1 µM)	118	4.8	9.6	20.5	20.9	7	4.7 (≈ 8.78 µM)	50.8	–
COCCOCC(=O)NS(=O)(=O)c1ccc(Nc2nc(N)n(C(=O)c3c(F)cccc3F)n2)cc1	> 100	5.4 (≈ 10.6 µM)	247	4.8	9.6	42.9	> 10	18	> 1000	> 10	–
